Data set [1] relates to awake rats (diuresis). Kind of data set: Diuresis in awake rats (urine volume within the first 4 hours). The format is in vivo, rat (SIV 50 strain). To be noted: intragastral, urine volume in 4 hours, FIG. 2. How it is done:
The experimental animals used were male rats of the SIV 50 strain which were kept under constant conditions. Feed was removed 36 hours before the commencement of the experiments but water was available until just before the commencement of the experiment. The test substances were administered intragastrally as suspensions in 1% tragacanth slurry which has been prepared with a 0.2% sodium chloride solution (1 ml/100 g body weight). In addition, the animals were given intragastrally 4 ml/100 g body weight a 0.2% sodium chloride solution. The animals were kept individually in metabolic cages in order to determine the urine volumes within the first 4 hours.

The nature of data set [2]: Acute toxicity in rats (intragastral, 7 days observation, LD50 by Weber's probit analysis). The format is in vivo, rat (SIV 50 strain). To be noted: rat, in vivo, po. How it is done:
(§1) The experimental animals used were male and female rats of the SIV 50 strain with a body weight of 115 to 170 g and of 100 to 160 g, respectively. All the animals were fasted for 20 hours before the commencement of the experiments, water was available ad libitum. There were 10 animals in each dosage group. The test substances were administered intragastrally with a metal probe in the form of 1% tragacanth slurry suspensions (4 ml/100 g of body weight).
(§2) The animals were observed over a period of time of 7 days. For the calculation of the LD50 with the related confidence limits, use was made of Weber's probit analysis (see Grundriss der Biologischen Statistik, pub. Gustav Fischer Verlag, Jena, 1-72).

The conditions of data set [3]: cited from earlier work.
For data set [4], the system named is rats with renovascular high blood pressure. Kind of data set: Renovascular high blood pressure in rats. The format is in vivo, rat (SIV 50 strain). Set-up: average blood pressure: unit: mmHg. From the text:
The antihypertensive properties were investigated in rats which, after experimental ligature of the kidney blood flow, had developed a renovascular high blood pressure. The experimental animals used were male rats of the SIV 50 strain which, under ether narcosis, had been monolaterally nephrectomised and the contralateral renal arteries of which had been stenosed 2 days later with the help of silver clips. After 6 to 8 weeks, these animals developed a high blood pressure. The blood pressure measurement took place bloodlessly on the root of the tail of the animals. The test substances were administered intragastrally once daily as tragacanth slurry suspensions for 33 days.

The subject of data set [5] is male and female rats of the SIV 50 strain. Kind of data set: Acute toxicity in rats (intragastral, 7 days observation, LD50 by Weber's probit analysis). It counts as in vivo, rat (SIV 50 strain). To be noted: rat. How it is done:
as §1, §2

Data set [6] can be described thus: Racemization of (+)-ozolinone in 0.1N hydrochloric acid and in chloroform. The format is physicochemical. To be noted: read-out: degree of racemization. As for the experimental part:
Esterification of the known, optically-active (+)-(3-methyl-4-oxo-5N-piperidinothiazolidin-2-ylidene)-acetic acid [(+)-ozolinone (see Federal Republic of Germany Patent Specification No. 26 58 858)] also cannot be carried out with agents which can be used on a large scale because it racemizes under the esterification conditions. Thus, for example, (+)-ozolinone racemizes to an extent of 15% in 0.1N hydrochloric acid in less than 1 hour. Even in chloroform, in the same period of time, the degree of racemization which occurs is about 10%.

Data set [7] concerns mice. The following applies: male mice; literature (Meng-Loew, Diuretika, 1974); cited from earlier work.
Setting [8] is: 100 mg/kg i.g., 2nd day after treatment.
Setting [9] is: 100 mg/kg i.g., 20th day of treatment.
The mark [10] stands for this setting: 100 mg/kg i.g., before treatment.
[11] abbreviates: 200 mg/kg i.g., 8th day after treatment.
Where [12] appears, read: 200 mg/kg i.g., 10th day of treatment.
[13] abbreviates: 200 mg/kg i.g., 17th day of treatment.
[14] abbreviates: 200 mg/kg i.g., 33rd day of treatment.
The mark [15] stands for this setting: 200 mg/kg i.g., before treatment.

Each structure is given as a SMILES string. “Also recorded” adds a separate entry of the source. Where two headings read alike, the source gives them in different places. A value given as a limit tells only on which side of the number the result lay.

The values that follow come from patent US4255433A, “(+)-(3-Methyl-4-oxo-5N-piperidinothiazolidin-2-ylidene)acetic acid esters, method of preparation and use” (Godecke Aktiengesellschaft, priority 1979, dated 1981).

Usually LD50 stands for the dose expected to kill half of the subjects tested. Regarding `CCOC(=O)C=C1SC(N2CCCCC2)C(=O)N1C` (racemic) [Compound A, ethyl (±)-(3-methyl-4-oxo-5N-piperidinothiazolidin-2-ylidene)acetate], the “diuretic action (in words)” value in data set [1] was “diuretically effective in a dosage dependent manner”. Also, the LD50 at 168 h in data set [2] (female rat) came to 10200 mg/kg; in data set [2] (male rat) it was 11000 mg/kg. The “antihypertensive activity (in words)” value in data set [3] (published) is “good antihypertensive activity”. Besides, in data set [3] (published), the “diuretic / saluretic activity (in words)” value was “strong diuretic and saluretic properties”. The “antihypertensive effect at subdiuretic doses (in words)” value in data set [3] (subdiuretic doses, DE 25 32 180) was “even at subdiuretic doses, an antihypertensive effect occurs”. The average blood pressure in data set [4] (setting [8]) was 195; in data set [4] (setting [9]), 175; in data set [4] (setting [10]) it was 197; in data set [4] (setting [11]) it was 182; in data set [4] (setting [12]), 171; in data set [4] (setting [13]), 182. For the same molecule, the average blood pressure in data set [4] (setting [14]) is given as 174; in data set [4] (setting [15]) it was 187.
Take `CCOC(=O)C=C1SC(N2CCCCC2)C(=O)N1C` (single isomer, unassigned) [Compound B, ethyl (+)-(3-methyl-4-oxo-5N-piperidinothiazolidin-2-ylidene)acetate]: the “diuretic action (in words)” value in data set [1] was “diuretically inactive; also recorded: does not possess any diuretic action at all”. Further, the 50% lethal dose (LD50) at 168 h in data set [2] (bound stated) was above 2000 mg/kg; in data set [2] (female rat), 4230 mg/kg; in data set [2] (male rat), 3650 mg/kg. Moreover, the “acute toxicity (in words)” value in data set [5] is given as “more toxic than Compound A; also recorded: extraordinarily nontoxic”. In addition, the average blood pressure in data set [4] (setting [8]) is 190; in data set [4] (setting [9]) it was 164; in data set [4] (setting [10]) it was 189; in data set [4] (setting [11]) it was 182; in data set [4] (setting [12]) it was 159; in data set [4] (setting [13]), 150. Moreover, the average blood pressure in data set [4] (setting [14]) is recorded as 156; in data set [4] (setting [15]), 185. Besides, the “antihypertensive action (in words)” value in data set [4] (rats with renovascular high blood pressure) was “possesses the strongest antihypertensive action and that this effect is dosage dependent”.
Turning to `CCOC(=O)C=C1SC(N2CCCCC2)C(=O)N1C` (single isomer, unassigned) [Compound C, ethyl (-)-(3-methyl-4-oxo-5N-piperidinothiazolidin-2-ylidene)acetate], the “diuretic action (in words)” value in data set [1] is recorded as “diuretically effective in a dosage dependent manner”. Besides, the average blood pressure is 201 in data set [4] (setting [8]); 176 in data set [4] (setting [9]); 191 in data set [4] (setting [10]); 190 in data set [4] (setting [11]); 178 in data set [4] (setting [12]); 176 in data set [4] (setting [13]). The values for the average blood pressure in data set [4] (setting [14]) and in data set [4] (setting [15]) were 164 and 192, respectively.
`CN1C(=O)C(N2CCCCC2)SC1=CC(=O)O` (single isomer, unassigned; (+)) [(+)-ozolinone, (+)-(3-methyl-4-oxo-5N-piperidinothiazolidin-2-ylidene)-acetic acid]: the degraded at 1 h in data set [6] (0.1N hydrochloric acid, less than 1 hour) was 15%; in data set [6] (chloroform, same period of time (less than 1 hour)), around 10%.
In the case of `NS(=O)(=O)c1cc2c(cc1Cl)NCNS2(=O)=O` [Compound D, 6-chloro-3,4-dihydro-2H-1,2,4-benzothiadiazine-7-sulphonamide 1,1-dioxide], the LD50 in data set [7] is 3,080 mg/kg.
Consider `C=C(CC)C(=O)c1ccc(OCC(=O)O)c(Cl)c1Cl` [Compound F, [2,3-dichloro-4-(2-methylene-1-oxobutyl)phenoxy]acetic acid], for which the 50% lethal dose (LD50) in data set [7] is listed as 600 mg/kg.
